Assay: Human HepG2 cell viability assay in 384 well format
Assay type: toxicity, cell-based
Parameters: dose 125 nL, time 70.5 hour; concentration not given beside the values
Conditions: HepG2 cells, read-out: Inhibition

| Structure (SMILES) | cytotoxicity at 70.5 h [%] |
| --- | --- |
| Cc1c(C(=O)NCCCC(N)=O)sc2ccc(F)cc12 | 25.3 |
| Cc1nc2n(n1)CC(Nc1ccnc(-c3ccccc3)n1)CC2 (centres undefined) | -6.55 |
| CCCc1nnc(NC(=O)NC(CCO)c2cccs2)s1 (centres undefined) | -3.88 |
| Cc1cnc(NC(=O)NC(CCO)c2cccs2)s1 (centres undefined) | -3.17 |
| CCCn1nc2c(cc1=O)CN(C(C)C(=O)Nc1nccs1)CC2 (centres undefined) | 4.51 |
| CC(C)Cc1nnc(NC(=O)NC(CCO)c2cccs2)s1 (centres undefined) | -3.34 |
| CC(C(=O)Nc1ccnn1C(C)C)N1CCc2nn(C)c(=O)cc2C1 (centres undefined) | 4.22 |
| OCC1(NCc2cnc(-c3cccs3)s2)CCOCC1 | -6.15 |
| CN(C(=O)NCc1nccn1Cc1ccccc1)C1CC1 | 9.16 |
| OCC1(NCc2cnc(-c3ccsc3)s2)CCOCC1 | -6.13 |
| COc1ccc(CC(=O)NC2(C#N)CCOCC2)c(Cl)c1 | 3.22 |
| O=C(NCc1nccn1CCc1ccccc1)NCC1CCC1 | 2.35 |
| COc1ccc(C)cc1CC(=O)NC1(C#N)CCOCC1 | 29.1 |
| Cc1cnc(CN2CC=C(c3c[nH]c4ncccc34)CC2)o1 | 5.53 |
| O=C(NCC1(CO)CC1)NC(c1nccs1)C1CC1 (centres undefined) | -3.86 |
| Cc1noc(CN(Cc2cccc(C#N)c2)Cc2cccs2)n1 | 0.497 |
| N#Cc1cccc(OCCN2CCCC2C(=O)N2CCSCC2)c1 (centres undefined) | 3.62 |
| Cc1occc1CNC(=O)C1CCN(C(=O)OC(C)(C)C)C1 (centres undefined) | -0.732 |
| CC(C(=O)Nc1ccc(Cl)cn1)N1CCc2nn(C)c(=O)cc2C1 (centres undefined) | -2.78 |
| Cc1cnc(C(NC(=O)NCC2(CO)CC2)C2CC2)s1 (centres undefined) | 2.13 |
| O=C(c1cccc(F)c1Cl)N(CCO)CC1CC1 | -1.98 |
| NC(=O)c1ccc(N2CCCCC2)c(NC(=O)c2ccc(F)cc2Cl)c1 | 3.11 |
| CCNC(=O)C1CCN(Cn2nc(-c3ccccc3)oc2=O)CC1 | -1.22 |
| O=c1oc(-c2ccccc2)nn1CN1CCC(N2CCCCC2)CC1 | 24.3 |

| Structure (SMILES) | cytotoxicity at 70.5 h [%] |
| --- | --- |
| O=C(CCCn1cncn1)NC1(c2ccc(Cl)cc2)CCC1 | -1.83 |
| Cc1ccc(CN(C)C(=O)CN2CCCC2Cn2cncn2)cc1 (centres undefined) | -3.7 |
| CN(Cc1ccccc1)C(=O)CN1CCCCC1Cn1cncn1 (centres undefined) | 1.47 |
| O=C(NC1CCC(C(=O)N2CCSCC2)CC1)N1CCC1 (centres undefined) | -6.98 |
| CN(Cc1cnn(C)c1)C(=O)CN1CCCCC1Cn1cncn1 (centres undefined) | -7.41 |
| CC(C)c1nc(CNC2CCCN(c3cccnn3)C2)no1 (centres undefined) | 21 |
| NC(=O)c1ccc(N2CCCCC2)c(NC(=O)c2cc(F)ccc2F)c1 | -4.2 |
| CCNC(=O)Cc1c(C)nc2c(c1C)c(=O)[nH]n2C | -5.26 |
| c1cnnc(N2CCCC(NCc3nc(-c4ccsc4)no3)C2)c1 (centres undefined) | -0.51 |
| COC(=O)[C@H](C)NC(=O)Cc1c(C)nc2c(c1C)c(=O)[nH]n2C | -2.82 |
| c1ccc(-c2noc(CNC3CCCN(c4cccnn4)C3)n2)nc1 (centres undefined) | 0.881 |
| Cc1cccc(C2(NC(=O)CCCn3cncn3)CCCC2)c1 | -5.53 |
| O=C(CCCn1cncn1)NC1(c2cccc(Br)c2)CC1 | 4.56 |
| CC(C)(C)OC(=O)N1CCCc2ccc(NCc3ccon3)cc21 | -4.98 |
| CC(C)c1ocnc1C(=O)NC1(c2cccc(F)c2)CCOCC1 | -3.27 |
| O=C(C1CC1)N1CCC(Oc2ccccc2Cl)CC1 | 20.6 |
| CC(C)C1CN(C(=O)c2cccs2)CCS1 (centres undefined) | -4.53 |
| CCN(Cc1ccccc1)C(=O)CN1CCCCC1Cn1cncn1 (centres undefined) | -6.76 |
| Cc1cc(NC(=O)C(c2cccc(F)c2)N2CCOCC2)sn1 (centres undefined) | 8.13 |
| O=C(NCCN1CCOCC1)N(CCCO)C1CCCc2ccccc21 (centres undefined) | -2.32 |
| CC(C)C(=O)N1CCN(Cc2csc(-c3ccccn3)n2)CC1 | -7.7 |
| COc1cc(NC(=O)c2ccc(C)c(F)c2)c(C(=O)N(C)C)cc1OC | -12.5 |
| Cc1ccc(S(=O)(=O)Nc2ccc(-n3cccc3C(=O)O)c(C)c2)cc1 | -6.38 |
| CCC(CC)C(=O)NCc1cn2cc(Br)ccc2n1 | -8.77 |

| Structure (SMILES) | cytotoxicity at 70.5 h [%] |
| --- | --- |
| COc1c(Br)cccc1CCNC(=O)c1ncoc1C | 9.9 |
| CN(Cc1ccccn1)C(=O)c1ccc2c(c1O)OC(C)(C)C2 | 11.6 |
| Cc1oc(-c2ccc(Cl)cc2)nc1C(=O)NC1=NCCS1 | 11.2 |
| CC(c1ccccc1)N(C)C(=O)CN1CCCc2cc(F)cc(F)c21 (centres undefined) | 12.8 |
| O=C(CNc1cc(Br)ccc1Br)NC1CCS(=O)(=O)C1 (centres undefined) | -14.1 |
| Cc1oc(-c2ccccc2)nc1CC(=O)NC1=NCCS1 | -11 |
| NC(=O)C1CCN(CC(=O)N2CCCC2c2ccsc2)CC1 (centres undefined) | -4.16 |
| Cc1nnc2n1CCN(C(=O)CN1C(=O)C(C)Oc3ccccc31)C2 (centres undefined) | -7.32 |
| Clc1cncc(NCc2cccc(COC3CCOCC3)c2)n1 | -6.08 |
| CS(=O)(=O)CCCOc1cccc(-n2cccn2)c1 | 12.8 |
| CCN1CCN(S(=O)(=O)c2c[nH]c(C(C)C)n2)c2ccccc21 | -5.4 |
| CC(C)Cc1noc(COc2ccc(N(C)C(N)=O)cc2)n1 | -6.27 |
| Clc1cnccc1NCc1cccc(COC2CCOCC2)c1 | -0.494 |
| O=C(C1CCCOC1)N1CCc2ccc(F)cc21 (centres undefined) | 1.26 |
| Cc1noc(C)c1CNc1ccc2nc(C3CC3)sc2c1 | -1.96 |
| O=C1CC2(CCSC2)C(=O)N1Cc1ncc(-c2ccccc2)o1 (centres undefined) | -2.34 |
| O=C(CC(F)(F)F)NC(c1ccc(Cl)cc1)c1ncon1 (centres undefined) | -3.08 |
| CN(Cc1nnc(C2CC2)o1)C(c1ccc(F)cc1)c1cccnc1 (centres undefined) | 0.0755 |
| CC(C)CC(C(=O)N(C)Cc1ncnn1C)N1CCCCC1=O (centres undefined) | -2.2 |
| CC(CCNC(=O)N1CCC1)N(C)C(=O)OC(C)(C)C (centres undefined) | -0.749 |
| O=C(c1ncoc1-c1ccco1)N(Cc1ccco1)CC1CCCO1 (centres undefined) | -3.69 |
| Cc1ccc(CNCc2c[nH]nc2C(C)(C)C)c(OC2CCOC2)c1 (centres undefined) | -5.05 |
| CC(C)NC(=O)CN(C)CC(=O)/N=c1/cc[nH]n1C(C)C1CC1 (centres undefined) | 34.2 |
| COc1c(C)cnc(CNC(=O)CCOCC(C)C)c1C | -4.31 |

| Structure (SMILES) | cytotoxicity at 70.5 h [%] |
| --- | --- |
| CC(C)Cn1ncc2cc(C(=O)N(C)CCc3ccccc3)cnc21 | -8.96 |
| Cc1occc1C(=O)N1CCC(C(O)c2ccc(F)cc2)CC1 (centres undefined) | -4.29 |
| CC(C1CC1)n1nccc1NC(=O)CN(C)C(=O)OC(C)(C)C (centres undefined) | 27.9 |
| Cc1nc(CNc2ncc(Br)cn2)n[nH]1 | -5.62 |
| CC(C)C(C)N(C(=O)c1cc2c([nH]c1=O)CCCC2=O)C1CC1 (centres undefined) | -7.9 |
| CS(=O)(=O)N1CCOC2(CCCC2)C1 | -5.25 |
| O=c1[nH]nc(CNc2ncc(Br)cn2)[nH]1 | -2.47 |
| OCCCNC1CCc2cc3c(cc21)OCCO3 (centres undefined) | -4.1 |
| CC(=O)N(C)CCc1nc(-c2cc(C(N)=O)co2)cs1 | -6.25 |
| CC(C)c1cccc(-n2cc(O)c(C(N)=O)n2)c1 | 25.8 |
| CC(C)CCN(C)C(=O)c1cnc2c(cnn2CC(C)C)c1 | 1.58 |
| CC1CCCN(S(=O)(=O)N2CCOC3(CCCC3)C2)C1 (centres undefined) | 10.1 |
| Cc1cc(CNC(=O)c2cc(C(C)C)n(C)n2)ccc1S(C)(=O)=O | -8.39 |
| COCCN(CCN(C)C)C(=O)NC1CCc2ccccc2C1 (centres undefined) | -5.75 |
| O=S(=O)(c1cccnc1)N1CCN(CC(O)c2ccccc2)CC1 (centres undefined) | -3.21 |
| NC(=O)NC(CC(=O)NCCc1cccc(F)c1)c1cccs1 (centres undefined) | 17 |
| Cc1cc(NC(=O)CN(CC(C)O)c2ccccc2)on1 (centres undefined) | -3.15 |
| CC(=O)NCCSCCOc1cccc(Br)c1 | 17.6 |
| O=C(CCc1ccccn1)NCC(O)c1ccc(Cl)cc1Cl (centres undefined) | -1.56 |
| O=C(CCCc1ccccn1)NCC(O)c1ccccc1Cl (centres undefined) | 3.77 |
| CSc1nc(C2CC2)nc(C)c1C(=O)NCc1ncc(C)o1 | -2.47 |
| Cc1nc(CNC(=O)NC2CCN(c3ncccc3Cl)C2)no1 (centres undefined) | -3.51 |
| O=C(NCc1cscn1)NC1CCN(c2ncccc2Cl)C1 (centres undefined) | -2.49 |
| CC(C)c1ccc(S(=O)(=O)NC2(CC(N)=O)CCC2)cc1 | 2.8 |

| Structure (SMILES) | cytotoxicity at 70.5 h [%] |
| --- | --- |
| CC(C)n1ncc2c1NC(=O)C(C#N)C21CCCCC1 (centres undefined) | -9.51 |
| CC(C)C(NC(=O)c1ccc(Cl)cc1Cl)C(=O)Nc1ccn(C)n1 (centres undefined) | 1.6 |
| COC(=O)CN(Cc1ccccc1C)C(=O)COCC1CC1 | -2.06 |
| CN(C(=O)c1cccnc1OCC(F)F)c1ccc2c(c1)CCO2 | -9.98 |
| CCN(C)CC1CCN(C(=O)Nc2ccc(C)cc2)C1 (centres undefined) | -3.05 |
| Cc1ncc(CN(C)CC(O)c2cccc(C(F)(F)F)c2)s1 (centres undefined) | 17.1 |
| CCC(CC)c1nnc(NC(=O)N2CCC(C(N)=O)CC2)s1 | -0.155 |
| Cc1ccc2nc(NCCN3CCOCC3)n(C)c(=O)c2c1 | 0.444 |
| NC(=O)C1CCCN1Cc1ccccc1NC(=O)Cc1cccc(F)c1 (centres undefined) | -0.431 |
| CCOc1ccnc(N2CCN(C(=O)CCc3ccsc3)CC2)n1 | -7.66 |
| CC(C)CNC(=O)CCN1C(=O)CCc2cc(F)ccc21 | -4.13 |
| Cn1ncnc1NS(=O)(=O)c1ccc(F)cc1Cl | -1.04 |
| CCOc1ccnc(N2CCN(C(=O)CCc3ccncc3)CC2)n1 | 0.226 |
| CC(C(=O)N1CCc2sccc2C1)N1CCC(S(N)(=O)=O)CC1 (centres undefined) | -4.51 |
| Cc1cccc(CNc2nnc(C(C)C)o2)c1 | 0.308 |
| Cc1ncc(CN(C)CC(O)c2ccc(Br)cc2)s1 (centres undefined) | -12 |
| COc1ccnc(N2CCCN(C(=O)CCc3cnn(C)c3)CC2)n1 | -10.3 |
| CCOCc1nnc(NCc2cccnc2)o1 | -7.36 |
| Cn1nccc1NCc1cc2cc(F)ccc2o1 | 23.2 |
| CSC1(CNC(=O)c2cccc(-n3cccn3)c2)CCOCC1 | 1.71 |
| Cc1cc(CN(C)C(=O)CN2CCCC2=O)no1 | -15.2 |
| O=C(CCn1c(=O)oc2ccccc21)NCC(O)c1ccccc1 (centres undefined) | -3.91 |
| Cc1n[nH]c2ncc(CNC3CCN(Cc4ccccn4)CC3)cc12 | -6.34 |

Reference: ChEMBL document CHEMBL3507680, “University of Dundee, Gates Library screen for HepG2 cell viability”
